Consider seven compounds from publication PMC3893781, “Triterpenoid Saponins Isolated from Platycodon grandiflorum Inhibit Hepatitis C Virus Replication” (Evidence-based Complementary and Alternative Medicine : eCAM, 2013).

Converted amounts (≈) assume the structure as drawn. Read-outs that look alike come from different tables or passages of the source. Where only a bound is given, the exact number is not on record here.

The test system of series [1] is HCV replicon cells (genotype 1b). Briefly: In vitro combination studies (CalcuSyn combination index). The conditions noted are these: in combination with PGSM; for Combination Index at EC50 / Combination Index at EC75 / Combination Index at EC90: 72 h, CalcuSyn; for Effect of combination: CI < 1 synergistic. The class given is cell-based, HCV genotype 1b. The method, then:
HCV Replicon cells were treated with various concentrations of inhibitors in twofold serial dilutions at a final dimethyl sulfoxide concentration of 1% including titrations of each of the compounds alone as reference controls. […] At three days after treatments, intracellular HCV RNA levels were determined by qRT-PCR. For the Loewe additive model, the experimental data were analyzed by using CalcuSyn (Biosoft, Ferguson, Mo.), a computer program based on the method of Chou and Talalay. A combination index (CI) value for each experimental combination was calculated by a quantitative measure of the degree of drug interaction in terms of additive effect (CI = 1), synergism (CI < 1), or antagonism (CI > 1) for a given endpoint of the effect measurement.

Series [2] concerns Huh7 cells harboring HCV subgenomic replicon (genotype 1b). In words: Colony forming assay. It is filed as cell-based, HCV genotype 1b. The settings on record: 5 U/mL of IFN-α alone, three weeks, G418.
Description: G418 was included in the media to provide selective pressure on HCV replicon cells. After three weeks of treatment, surviving cells were stained with crystal violet [23].
Series [3] concerns HCV subgenomic replicon cells (genotype 1b). In words: Anti-HCV assay for 14 days. The class given is cell-based, HCV genotype 1b. The method, then: HCV replicon cells were plated at 2 × 10^5 cells per well in a 6-well plate. Each compound was serially diluted in DMEM containing 10% FBS and 0.2% DMSO as reported previously. Culture media were replaced with fresh medium and compounds every 3 days. Cells were harvested at 3, 6, 9, and 14 days and intracellular HCV RNA levels were analyzed by qRT-PCR. The relative copy number of HCV RNA per cell was calculated by comparing RNAs in cells treated with each compound with those RNAs in cells treated with 0.2% DMSO.

Series [4] in a line: Cell viability assay (MTT). It is filed as cell-based. The conditions noted are these: human, Huh7 cells, read-out: Cytotoxicity (CC50). As to the method: Cell viability was determined by the colorimetric 3-(4,5-dimethylthiazol-2-yl)-2,5-diphenyltetrazolium bromide (MTT) reagent (Promega Corporation) according to the manufacturer's instructions. The absorbance was detected at 570 nm using a Bio-Tek plate reader (Bio-Tek instrument, Weymouth, MA).

The test system of series [5] is HCV subgenomic replicon (genotype 1b) in Huh7 cells. In words: Anti-HCV assay in HCV replicon cells (qRT-PCR). It is filed as cell-based, HCV genotype 1b. The conditions noted are these: Hepatitis C virus, Huh-7, 72 h, read-out: Inhibition of HCV RNA replication (EC50) CON1 (genotype 1b). The method, then:
Huh7 cells harboring HCV subgenomic replicon (genotype 1b) were maintained in the presence of 0.25 mg/mL G418 (Invitrogen, Carlsbad, CA). HCV replicon cells were seeded at a density of 1 × 10^4 cells/well in a 96-well plate and incubated at 37°C and 5% CO2. Following 24 h incubation, the culture medium was replaced with a medium containing serially diluted test compounds in the presence of 2% FBS and 1% DMSO. After cells were treated for 72 h with PGMS and triterpenoid saponins, total RNAs were extracted using a CellAmp Direct RNA Prep Kit (Korea Biomedical, Seoul, Korea). The HCV RNA levels were quantified by a quantitative real-time polymerase chain reaction (qRT-PCR) assay using IQ5 real-time PCR detection system (Bio-Rad, Hercules, CA, USA) with HCV-specific primers (5′-GACACTCCACCATAGATCACTC-3′ and 5′-CCC AAC ACT ACT CGG CTA G-3′) and probe (5′-FAM-CCCAAATCTCCAGGCATTGAGCGG-3′ BHQ-1). Results were normalized to glyceraldehyde-3-phosphate dehydrogenase gene (GAPDH). Anti-HCV activity was determined by HCV RNA levels in compound-treated cells as compared to mock-treated cells.

Series [6] addresses T1, HCV NS5B polymerase (NS5BCΔ21) (Hepatitis C virus genotype 1b, UniProt Q9WMX2).
T1 construct: HCV NS5B polymerase from HCV genotype 1b carrying an N-terminal GST-tag and C-terminal 21-amino acid truncation (NS5BCΔ21); made in house; host or cells: Escherichia coli
Briefly: RdRp assay with recombinant HCV NS5B polymerase. The class given is biochemical, HCV genotype 1b. As to the method:
Recombinant HCV NS5B polymerase from HCV genotype 1b carrying an N-terminal GST-tag and C-terminal 21-amino acid truncation (NS5BCΔ21) was expressed in Escherichia coli and purified as previously described with some modifications. The colorimetric reverse transcriptase assay kit (Roche Applied Science) was applied to perform RdRp assay. The inhibition of HCV RdRp activity was determined by the amount of double-stranded RNA synthesized by the recombinant NS5BΔC21 in the presence of various test compounds using HCV 3′-UTR as a template.

For a further series, the target named is T2, HCV NS3/4A protease (Hepatitis C virus genotype 1b, UniProt Q9WMX2).
T2 construct: HCV-NS3/4A protease purified from E. coli; host or cells: E. coli
In words: biochemical. The settings on record: FRET peptide substrate; read-out: HCV enzyme (IC50) HCV NS3/4A. It is filed as biochemical. As to the method:
The NS3/4A serine protease assay was performed using a HCV protease assay kit (SensoLyte, AnaSpec, Fremont, CA) according to the manufacturer's instructions. Briefly, HCV-NS3/4A protease purified from E. coli was mixed with the test compound in the assay buffer. After 15 min incubation at room temperature, EDANS/DABCYL-based fluorescence resonance energy transfer (FRET) peptide substrate solution was added and mixed. The FRET substrate was cleaved specifically by HCV NS3/4A protease, thereby liberating the C-terminal peptide-fluorophore fragment from the proximity quenching effect of the dark quencher, resulting in increase of fluorescence. The fluorescence intensity was measured immediately and continuously at excitation/emission at 340 nm and 490 nm.

The subject of series [7] is JFH1 viruses (HCV genotype 2a) in Huh7 cells. In words: Anti-HCV assay in HCVcc-infected cells (qRT-PCR). It is filed as cell-based. The conditions noted are these: Hepatitis C virus, Huh-7, 48 h, read-out: Inhibition of HCV RNA replication (EC50) JHF-1 (genotype 2a). As to the method: Infectious JFH1 viruses (HCV genotype 2a) were generated as described previously. Huh7 cells were seeded in 24-well plates at a density of 5 × 10^4 cells per well. At 24 h after plating, cells were infected with JFH1 viruses for 2 h. After incubation, the supernatants were replaced with fresh medium. Increasing concentrations of PGMS and its triterpenoid saponins were added in a medium containing 2% DMSO, and cells were incubated at 37°C. At 48 h after infection, total RNAs were extracted and the HCV RNA levels were quantified by qRT-PCR assay. Anti-HCV activity was determined by HCV RNA levels in compound-treated cells as compared to mock-treated cells.
(In general: Quantitative PCR measures a nucleic acid by following its amplification.)

Setting [8] is: read-out: HCV enzyme (IC50) HCV NS5B RdRp activity, recombinant NS5B, HCV 3′-UTR template.

For IFN-α, in series [1], the “Combination Index at EC50” value is recorded as 0.45, the “Combination Index at EC75” value was 0.39, the “Combination Index at EC90” value was 0.34 and the Effect of combination entry is recorded as “Synergistic”. Moreover, the “Colony formation of HCV replicons” value in series [2] is reported as “unable to inhibit colony formation”. Also, the “Reduction of HCV RNA levels” value in series [3] (IFN-α 10 U/mL) is 0.4 log10. Also, the “Reduction of HCV RNA levels” value in series [3] (IFN-α 50 U/mL) worked out at 0.8 log10. Moreover, the “Reduction of HCV RNA levels” value in series [3] (IFN-α 100 U/mL) came out at 1.5 log10.

On to `COC(=O)N[C@H](C(=O)N1CCC[C@H]1c1nc(-c2ccc(-c3ccc(-c4c[nH]c([C@@H]5CCCN5C(=O)[C@@H](NC(=O)OC)C(C)C)n4)cc3)cc2)c[nH]1)C(C)C` [BMS790052, Daclatasvir], for which, in series [1], the “Combination Index at EC50” value was 0.41, the “Combination Index at EC75” value is 0.42, the “Combination Index at EC90” value is listed as 0.44 and the Effect of combination result is recorded as “Synergistic”.

In the case of `CC(C)(C)OC(=O)N[C@H]1CCCCC/C=C\[C@@H]2C[C@@]2(C(=O)NS(=O)(=O)C2CC2)NC(=O)[C@@H]2C[C@@H](OC(=O)N3Cc4cccc(F)c4C3)CN2C1=O` [R7227, Danoprevir], in series [1], the “Combination Index at EC50” value is 0.72, the “Combination Index at EC75” value is on record as 0.71, the “Combination Index at EC90” value was 0.70 and the Effect of combination entry is “Synergistic”.

`CC1OC(OC2C(OC(=O)C34CCC(C)(C)CC3C3=CCC5C6(C)CC(O)C(OC7OC(CO)C(O)C(OC8OC(CO)C(O)C(O)C8O)C7O)C(CO)(CO)C6CCC5(C)C3(C)CC4O)OC(CO)C2O)C(O)C(O)C1OC1OCC(O)C(O)C1O` (stereo not drawn) [Deapioplatycodin D2, deapioplatycodin D2]: the CC50 (commonly the concentration at which the toxic effect on the cells reaches its halfway point) in series [4] amounted to 100 µg/mL (≈ 79.7 µM). The values for the EC50 in series [5] and in series [7] were 0.89 µg/mL (≈ 0.709 µM) and 8 µg/mL (≈ 6.37 µM), respectively. Also, the IC50 is 7.97 µM in series [6] (setting [8]) and over 79.7 µM at HCV NS3/4A protease.

With `CC1OC(OC2C(OC(=O)C34CCC(C)(C)CC3C3=CCC5C6(C)CC(O)C(OC7OC(COC8OC(CO)C(O)C(O)C8O)C(O)C(O)C7O)C(CO)(CO)C6CCC5(C)C3(C)CC4O)OC(CO)C2O)C(O)C(O)C1OC1OCC(O)C(OC2OCC(O)(CO)C2O)C1O` (stereo not drawn) [Platycodin D3, platycodin D3], the CC50 in series [4] amounted to 100 µg/mL (≈ 72.1 µM). For the same compound, the EC50 (in general, the concentration giving half of the maximal effect) in series [5] came out at 2.33 µg/mL (≈ 1.68 µM); in series [7], 27 µg/mL (≈ 19.5 µM). The IC50 in series [6] (setting [8]) is 5.77 µM; on HCV NS3/4A protease it was over 72.1 µM.

With `C[C@@H]1O[C@@H](O[C@H]2[C@H](OC(=O)[C@]34CCC(C)(C)C[C@H]3C3=CC[C@@H]5[C@@]6(C)C[C@H](O)[C@H](O[C@@H]7O[C@H](CO)[C@@H](O)[C@H](O)[C@H]7O)C(CO)(CO)[C@@H]6CC[C@@]5(C)[C@]3(C)C[C@H]4O)OC[C@H](O)[C@@H]2O)[C@H](O)[C@H](O)[C@H]1O[C@@H]1OC[C@@H](O)[C@H](O[C@@H]2OC[C@](O)(CO)[C@H]2O)[C@H]1O` [Platycodin D, platycodin D], the CC50 in series [4] stood at 25 µg/mL (≈ 20.4 µM). The values for the EC50 in series [5] and in series [7] were 0.35 µg/mL (≈ 0.286 µM) and 3 µg/mL (≈ 2.45 µM), respectively. Besides, the IC50 in series [6] is 4.08 µM; at HCV NS3/4A protease, over 81.6 µM.

With `C[C@@H]1O[C@@H](O[C@H]2[C@H](OC(=O)[C@]34CCC(C)(C)C[C@H]3C3=CC[C@@H]5[C@@]6(C)C[C@H](O)[C@H](O[C@@H]7O[C@H](CO)[C@@H](O)[C@H](O[C@@H]8O[C@H](CO)[C@@H](O)[C@H](O)[C@H]8O)[C@H]7O)C(CO)(CO)[C@@H]6CC[C@@]5(C)[C@]3(C)C[C@H]4O)OC[C@H](O)[C@@H]2O)[C@H](O)[C@H](O)[C@H]1O[C@@H]1OC[C@@H](O)[C@H](O[C@@H]2OC[C@](O)(CO)[C@H]2O)[C@H]1O` [Platycodin D2, platycodin D2], in series [4], the CC50 was 25 µg/mL (≈ 18 µM). In addition, the EC50 worked out at 1.05 µg/mL (≈ 0.757 µM) in series [5] and 12 µg/mL (≈ 8.65 µM) in series [7]. In addition, the IC50 in series [6] is 4.32 µM; at HCV NS3/4A protease, over 72.1 µM.
